Assay results reported in patent publication US20250186379A1, “METHODS AND AGENTS FOR DECREASING INSULIN RESISTANCE” (Whitehead Institute for Biomedical Research, priority 2021, published 2025).
“Also recorded” adds a separate entry of the source.

System: IR condensates
Test: Immunofluorescence for IR in human liver spheroids (primary human hepatocytes)
Format: cell-based
Details: 3 nM insulin 10 min
Procedure: For human liver spheroid experiments, primary human hepatocytes from a donor (BioIVT; lot #SMC) were used. Cells were thawed in Cryopreserved Hepatocyte Recovery Media (CHRM, ThermoFisher), spun down at 100 g for 8 min, and resuspended in seeding medium (William's E with 5.5 mM glucose, 2 mM GlutaMax, 15 mM HEPES, 5% FBS, 1% Pen/Strep, 100 nM hydrocortisone, and insulin 200 pM or 800 pM corresponding to the proper experimental group). Spheroids were formed using custom alginate microwells. In brief, 120,000 cells were seeded per well and spun at 50 g for 2 min to seed microwells, and cultured in a volume of 300 uL seeding medium. After 24 hours, cells were switched to maintenance media for the remainder of the experiment. This maintenance media was composed of William's E plus 6.25 μg/ml transferrin, 6.25 ng/ml selenium, 0.125% fatty acid-free BSA, 20 μM linoleic acid, 5.5 mM glucose, 2 mM GlutaMax, 15 mM HEPES, 0.5% Pen/Strep, and 100 nM hydrocortisone. Insulin was supplemented with concentrations adjusted to mimic healthy and disease-inducing states, either 200 pM for physiological or 800 pM for pathologic insulin levels. Media was exchanged every 48 hours throughout the experiment. […]

| Compound | IR signal intensity in cytoplasmic and nuclear condensates/puncta (insulin sensitive human liver spheroids) | IR signal in cytoplasmic and nuclear condensates/puncta (insulin resistant human liver spheroids + metformin) |
| --- | --- | --- |
| insulin: insulin (Sigma Aldrich, I9278-5ML) used for acute stimulation and chronic physiological or pathological exposure | leads to an increase in IR signal intensity in cytoplasmic and nuclear condensates; also recorded: produced an increase in IR signal intensity in cytoplasmic and nuclear puncta |  |
| CN(C)C(=N)N=C(N)N [metformin, reference compound] |  | partially rescued |
